Data taken from PubChem BioAssay (NCI).
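Protocol summary: plate cells (96-well), add compound at 5 concentrations, incubate 48 h, interpolate endpoints linearly. Abbreviation: GI50, concentration required for 50% inhibition of growth. TGI: concentration producing complete growth inhibition.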

How the values were obtained:
Assay in all cases: inhibition of tumour cell growth, NCI panel, 48 h
[1] = system: 786-0 renal
[2] = system: A498 renal
[3] = system: A549 NSCLC
[4] = system: ACHN renal
[5] = system: BT-549 breast
[6] = system: CAKI-1 renal
[7] = system: CCRF-CEM leukemia
[8] = system: COLO 205 colon
[9] = system: EKVX NSCLC
[10] = system: HCC-2998 colon
[11] = system: HCT-116 colon
[12] = system: HCT-15 colon
[13] = system: HL-60(TB) leukemia
[14] = system: HOP-62 NSCLC
[15] = system: HS 578T breast
[16] = system: HT29 colon
[17] = system: IGROV1 ovarian
[18] = system: K-562 leukemia
[19] = system: KM12 colon
[20] = system: LOX IMVI melanoma
[21] = system: M14 melanoma
[22] = system: MALME-3M melanoma
[23] = system: MCF7 breast
[24] = system: MDA-MB-231 breast
[25] = system: MDA-MB-435
[26] = system: MOLT-4 leukemia
[27] = system: NCI-H226 lung
[28] = system: NCI-H23 lung
[29] = system: NCI-H460 lung
[30] = system: NCI-H522 lung
[31] = system: OVCAR-3 ovarian
[32] = system: OVCAR-4 ovarian
[33] = system: OVCAR-5 ovarian
[34] = system: OVCAR-8 ovarian
[35] = system: PC-3 prostate
[36] = system: RPMI-8226 leukemia
[37] = system: SF-268 CNS
[38] = system: SF-295 CNS
[39] = system: SF-539 CNS
[40] = system: SK-MEL-2 melanoma
[41] = system: SK-MEL-28 melanoma
[42] = system: SK-MEL-5 melanoma
[43] = system: SK-OV-3 ovarian
[44] = system: SNB-19 CNS
[45] = system: SNB-75 CNS
[46] = system: SR leukemia
[47] = system: SW-620 colon
[48] = system: TK-10 renal
[49] = system: U251 CNS
[50] = system: UACC-257 melanoma
[51] = system: UACC-62 melanoma
[52] = system: DU-145 prostate
[53] = system: HOP-92 NSCLC
[54] = system: NCI/ADR-RES ovarian
[55] = system: RXF 393 renal
[56] = system: SN12C renal
[57] = system: T-47D breast
[58] = system: UO-31 renal

`COc1ccc(C2C=C(c3ccc(C)cc3)N(c3ccc(OC)cc3[N+](=O)[O-])C3C(=O)OC(=O)C23)c(OC)c1` (centres undefined) was tested, and the TGI [1] was > 100 µM, the TGI [2] was > 100 µM and the TGI [3] was > 100 µM. The TGI [4] was 37.3 µM, the TGI [5] was > 100 µM and the TGI [6] was > 100 µM. For the same compound, the TGI [7] was > 100 µM, the TGI [8] was > 100 µM and the TGI [9] was > 100 µM. The TGI [10] was 79.4 µM, the TGI [11] was > 100 µM and the TGI [12] was > 100 µM. The TGI [13] was > 100 µM, the TGI [14] was > 100 µM and the TGI [15] was 57.6 µM. The TGI [16] was 86.4 µM, the TGI [17] was 58.1 µM and the TGI [18] was > 100 µM. The TGI [19] was 22.7 µM, the TGI [20] was 57 µM and the TGI [21] was > 100 µM. The TGI [22] was 38.5 µM, the TGI [23] was > 100 µM and the TGI [24] was > 100 µM. For the same compound, the TGI [25] was > 100 µM, the TGI [26] was 91.6 µM and the TGI [27] was > 100 µM. For the same compound, the TGI [28] was > 100 µM, the TGI [29] was > 100 µM and the TGI [30] was 53.7 µM. For the same compound, the TGI [31] was 59 µM, the TGI [32] was > 100 µM and the TGI [33] was > 100 µM. For the same compound, the TGI [34] was 39.5 µM, the TGI [35] was > 100 µM and the TGI [36] was 56.5 µM. The TGI [37] was > 100 µM, the TGI [38] was > 100 µM and the TGI [39] was 53.2 µM. The TGI [40] was > 100 µM, the TGI [41] was > 100 µM and the TGI [42] was > 100 µM. For the same compound, the TGI [43] was > 100 µM, the TGI [44] was > 100 µM and the TGI [45] was 75.9 µM. The TGI [46] was 61 µM, the TGI [47] was 80.9 µM and the TGI [48] was > 100 µM. For the same compound, the TGI [49] was > 100 µM, the TGI [50] was > 100 µM and the TGI [51] was > 100 µM.

`COc1cc2c3c(n(CCCNCCCN)c(=O)c2cc1OC)-c1cc2c(cc1C3=O)OCO2` showed a GI50 [1] of 2.83 µM, a TGI [1] of 14.2 µM and a GI50 [2] of 18 µM. It also gave a TGI [2] of 35.6 µM, a GI50 [3] of 6.11 µM and a TGI [3] of 29.6 µM. For the same compound, the GI50 [4] was 3.14 µM, the TGI [4] was 13.7 µM and the GI50 [5] was 6.49 µM. For the same compound, the TGI [5] was 20.6 µM, the GI50 [6] was 8.22 µM and the TGI [6] was 37.3 µM. It also gave a GI50 [7] of 0.22 µM, a TGI [7] of 15.8 µM and a GI50 [52] of 3.08 µM. The TGI [52] was 13.4 µM, the GI50 [9] was 5.27 µM and the TGI [9] was 19.4 µM. For the same compound, the GI50 [11] was 1.34 µM, the TGI [11] was 5.32 µM and the GI50 [12] was 25 µM. For the same compound, the TGI [12] was > 100 µM, the GI50 [13] was 1.46 µM and the TGI [13] was 5.28 µM. The GI50 [14] was 1.6 µM, the TGI [14] was 13 µM and the GI50 [53] was 1.36 µM. For the same compound, the TGI [53] was 11.2 µM, the GI50 [15] was 6.28 µM and the TGI [15] was 42.8 µM. It also gave a GI50 [16] of 1.7 µM, a TGI [16] of 13.6 µM and a GI50 [17] of 2.69 µM. It also gave a TGI [17] of 18.9 µM, a GI50 [18] of 3.4 µM and a TGI [18] of 10.4 µM. It also gave a GI50 [19] of 3.51 µM, a TGI [19] of 16.9 µM and a GI50 [20] of 0.659 µM. It also gave a TGI [20] of 3.42 µM, a GI50 [21] of 4.65 µM and a TGI [21] of 16.7 µM. It also gave a GI50 [22] of 2.21 µM, a TGI [22] of 8.66 µM and a GI50 [23] of 0.504 µM. For the same compound, the TGI [23] was 5.08 µM, the GI50 [24] was 2.93 µM and the TGI [24] was 12.6 µM. The GI50 [25] was 2.53 µM, the TGI [25] was 13.5 µM and the GI50 [26] was 0.244 µM. For the same compound, the TGI [26] was 0.688 µM, the GI50 [27] was 2.21 µM and the TGI [27] was 8.45 µM. The GI50 [28] was > 100 µM, the TGI [28] was > 100 µM and the GI50 [29] was 4.07 µM. The TGI [29] was 18 µM, the GI50 [54] was 22.9 µM and the TGI [54] was 98.7 µM. For the same compound, the GI50 [31] was 3.08 µM, the TGI [31] was 11.7 µM and the GI50 [32] was 2.83 µM. The TGI [32] was 16.7 µM, the GI50 [33] was 2.94 µM and the TGI [33] was 12.6 µM. It also gave a GI50 [34] of 1.27 µM, a TGI [34] of 13 µM and a GI50 [35] of 3.53 µM. For the same compound, the TGI [35] was 14.6 µM, the GI50 [36] was 2.44 µM and the TGI [36] was 11.8 µM. The GI50 [55] was 3.91 µM, the TGI [55] was 16.8 µM and the GI50 [37] was 1.98 µM. For the same compound, the TGI [37] was 10.5 µM, the GI50 [38] was 3.69 µM and the TGI [38] was 16.7 µM. For the same compound, the GI50 [39] was 1.17 µM, the TGI [39] was 10.6 µM and the GI50 [40] was 2.35 µM. The TGI [40] was 7.33 µM, the GI50 [41] was 4.37 µM and the TGI [41] was 17.8 µM. The GI50 [42] was 5.35 µM, the TGI [42] was 19 µM and the GI50 [43] was 11.2 µM. It also gave a TGI [43] of 92.9 µM, a GI50 [56] of 2.34 µM and a TGI [56] of 13.3 µM. For the same compound, the GI50 [44] was 1.52 µM, the TGI [44] was 11.6 µM and the GI50 [45] was 4.48 µM. The TGI [45] was 36.7 µM, the GI50 [47] was 3.29 µM and the TGI [47] was 16.4 µM. For the same compound, the GI50 [57] was 2.8 µM, the TGI [57] was 14.7 µM and the GI50 [48] was 9.74 µM. For the same compound, the TGI [48] was 27.9 µM, the GI50 [49] was 1.25 µM and the TGI [49] was 11.4 µM. It also gave a GI50 [50] of 7.31 µM, a TGI [50] of 23 µM and a GI50 [51] of 3.41 µM. For the same compound, the TGI [51] was 15.5 µM, the GI50 [58] was 15.4 µM and the TGI [58] was 38.5 µM.
